Data from patent publication US20220025003A1, “REAGENTS AND METHODS FOR CONTROLLING PROTEIN FUNCTION AND INTERACTION” (University of Washington, priority 2018, published 2022).

Assays:
[1] = tested on: RAS/ERK pathway in HEK293 cells; assay: Activation of NS3a-CDAR, phospho-ERK blot; assay type: cell-based; settings: 10 μM drug, 60 min
Description: 18-24 hours prior to transfection, 3.0×10^5 HEK293 cells were plated onto poly-D-lysine 12 well plates. Immediately prior to transfection, media was aspirated and cells were washed with 1 mL of pre-warmed (37° C.) PBS, then serum starved with FBS-free DMEM. Following serum starvation, cells were transfected with 1 μg of FLAG-tagged NS3a-CDAR, BH3-NS3a-CDAR, or an empty pCDNA5 vector. Transfected cells were allowed to serum stave for 18-20 hours prior to drug treatment. For drug treatment, serum-free media was prepared with DMSO or 10 μM of a drug. Media was aspirated, washed once with pre-warmed DPBS, then treated with drug/DMSO media for the requisite amount of time. Media was subsequently aspirated and the cells were washed twice with 1 mL chilled PBS, then lysed with 75 μL Mod. RIPA buffer (50 mM Tris, pH 7.8, 1% IGEPAL CA-630, 150 mM NaCl, 1 mM EDTA, 2 mM Na3VO4, 30 mM NaF, Pierce Protease Inhibitor Tablet). Cleared lysates were subjected to SDS-PAGE and transferred to nitrocellulose. Blocking and antibody incubations were done in TBS with 0.1% Tween-20 (v/v) and blocking buffer (Odyssey). Primary antibodies were all purchased from Cell Signaling Technologies and were diluted as follows: Total ERK (1:2500, #9107), phosphorylated ERK (1:2500, #4370), FLAG (1:2,500, #D6W5B). Blots were washed three times in TBS with 0.1% Tween-20. Antibody binding was detected by using near-infrared-dye-conjugated secondary antibodies and visualized on the LI-COR Odyssey scanner. Blots were quantified via densitometry with Image Studio (LI-COR).

CXCR4 = assay: Danoprevir/grazoprevir titrations to linearize CXCR4 or CD95 expression; assay type: cell-based, human; settings: increasing proportion of grazoprevir added to danoprevir titration
Description: Data were fit to four-parameter log dose-response curves (fitting EC50, upper and lower baselines, and Hill coefficient) in Graphpad Prism 5.

CC(C)(C)OC(=O)N[C@H]1CCCCC/C=C\[C@@H]2C[C@@]2(C(=O)NS(=O)(=O)C2CC2)NC(=O)[C@@H]2C[C@@H](OC(=O)N3Cc4cccc(F)c4C3)CN2C1=O [danoprevir]
phospho-ERK levels in cells expressing NS3a-CDAR [1]: robust increase in phospho-ERK levels | linear output range of CXCR4 expression (CXCR4): 3 orders of magnitude
